# Experimental data as given in paper PMC13401508 (Pharmacological research, 2026).
# Entries after “also recorded” stand apart in the source; their conditions may differ.
# Tests used:
# PXR = molecular target: T1, PXR (Homo sapiens, UniProt O75469); assay: PXR assay using DPX2 cells; assay type: cell-based
# T1 construct: expressed in transfected cells; host or cells: DPX2 cells
# T1 sequence (O75469 1-434): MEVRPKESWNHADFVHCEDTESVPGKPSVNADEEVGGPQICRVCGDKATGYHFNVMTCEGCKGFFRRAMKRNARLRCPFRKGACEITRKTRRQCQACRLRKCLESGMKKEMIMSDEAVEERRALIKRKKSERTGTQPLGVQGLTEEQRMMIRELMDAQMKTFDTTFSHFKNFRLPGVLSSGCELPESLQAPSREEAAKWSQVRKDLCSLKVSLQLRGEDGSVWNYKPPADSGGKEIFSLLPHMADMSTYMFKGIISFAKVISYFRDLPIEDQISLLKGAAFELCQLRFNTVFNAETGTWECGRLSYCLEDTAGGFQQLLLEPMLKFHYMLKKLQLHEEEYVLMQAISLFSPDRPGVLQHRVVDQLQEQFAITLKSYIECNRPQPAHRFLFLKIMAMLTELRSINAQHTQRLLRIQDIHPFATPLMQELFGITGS
# Procedure: DPX2 cells were initially cultured in T-75 flasks and maintained at 37°C in a humidified incubator with 5% CO2 and 95% relative humidity. Cells were allowed to reach 70-80% confluence prior to subculture. Next, cells were transferred to a culture plate and incubated for an additional 24 hours to allow for attachment and recovery prior to treatment. […] Cell viability and luciferase activity were measured using the CellTiter-Fluor™ Cell Viability Assay and One-GloTM Luciferase Assay System, respectively. Luciferase activity was normalized to viable number and fold activation of PXR was calculated using the following equation: […]
# [1] = system: CYP1A2, 2A6, 2B6, 2C8, 2C9, 2C19, 2D6 (the other isoforms of the panel); assay: Drug-substrate based CYP inhibition, other isoforms of the panel; assay type: in vitro ADME; settings: human liver microsomes; isoforms of the panel not given; read-out: Drug-substrate based CYP Inhibition, others
# Procedure: (§1) IVMT-Rx-4 was incubated with selective probe substrates of each CYP isoform in the presence of human liver microsomes. The formation of metabolite was quantified using LC-MS/MS methods. The extent of inhibition was assessed by calculating the remaining enzyme activity and percent inhibition based on analyte-to-internal standard area ratios, using the following equations:
# (§2) Area Ratio = Peak AreaAnalyte / Peak AreaInternal Standard
# (§3) Remaining Activity (%) = Area Ratiotest compound / Area Ratiovehicle ×100
# (§4) Inhibition (%) = 100 ̶ Remaining Activity (%)
# [2] = system: CYP 1A2, 2A6, 2B6, 2C8, 2C9, 2C19, 2D6, 2E1, 3A4_M, 3A4_T (the others); assay: as above; assay type: in vitro ADME; settings: human liver microsomes; isoforms of the panel not given
# Procedure: as §1, §2, §3, §4
# CXCL5 = assay: Secreted CXCL5 by ELISA in HS5 conditioned media; assay type: cell-based, human; settings: PDGF-AA activated HS5 cells, 24 hrs
# Procedure: Human and mouse specific CXCL5, PDGF-AA ELISA kits were obtained from R&D Systems, USA. All ELISAs were performed using the manufacturer’s protocol.
# Fig. 3. […] CXCL5 mRNA expression was measured by qRT-PCR. […] Secreted CXCL5 in CM was measured by ELISA (n = 3 ± SD; * p < 0.05). […] CXCL5 mRNA expression was measured by qRT-PCR (n = 3 ± SD; * p < 0.05).
# [3] = Thermodynamic solubility in PBS, pH 7.4; assay type: physicochemical
# [4] = Dynamic vapor sorption (DVS); assay type: physicochemical; settings: for moisture adsorption: 25°C
# Procedure: Hygroscopicity and moisture absorption of IVMT-Rx-4 were assessed using dynamic vapor sorption on a DVS instrument (SMS, DVS Intrinsic). Samples 20.4 mg in size were first treated at 25°C for several hours while under nitrogen flow. They were then treated with water vapor at various partial pressures with relative humidities which ranged from 0 to 90% at 25°C.
# CYP2E1 = molecular target: T2, CYP2E1 (Homo sapiens, UniProt P05181); assay: Drug-substrate based CYP inhibition, 2E1; assay type: in vitro ADME; settings: human liver microsomes
# T2 construct: in the presence of human liver microsomes; from tissue; host or cells: human liver microsomes
# T2 sequence (P05181 whole entry): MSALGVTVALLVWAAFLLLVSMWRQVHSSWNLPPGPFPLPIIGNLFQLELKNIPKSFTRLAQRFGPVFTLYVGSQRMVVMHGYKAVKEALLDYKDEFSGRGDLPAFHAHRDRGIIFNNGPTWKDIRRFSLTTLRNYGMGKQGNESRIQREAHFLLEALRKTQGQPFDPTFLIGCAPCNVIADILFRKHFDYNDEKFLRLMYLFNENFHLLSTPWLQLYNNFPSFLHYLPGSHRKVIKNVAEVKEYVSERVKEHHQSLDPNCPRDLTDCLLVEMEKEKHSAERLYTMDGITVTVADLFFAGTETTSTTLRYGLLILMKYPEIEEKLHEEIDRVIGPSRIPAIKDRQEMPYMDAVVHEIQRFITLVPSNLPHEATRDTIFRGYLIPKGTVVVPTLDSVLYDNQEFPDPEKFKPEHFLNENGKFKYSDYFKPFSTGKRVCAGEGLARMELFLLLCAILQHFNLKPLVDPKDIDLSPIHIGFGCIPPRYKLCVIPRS
# Procedure: as §1, §2, §3, §4
# CYP3A4 = molecular target: T3, CYP3A4 (Homo sapiens, UniProt P08684); assay: Time dependent CYP inhibition (TDI); assay type: in vitro ADME; settings: human liver microsomes, with or without NADPH
# T3 construct: in the presence of human liver microsomes; from tissue; host or cells: human liver microsomes
# T3 sequence (P08684 whole entry): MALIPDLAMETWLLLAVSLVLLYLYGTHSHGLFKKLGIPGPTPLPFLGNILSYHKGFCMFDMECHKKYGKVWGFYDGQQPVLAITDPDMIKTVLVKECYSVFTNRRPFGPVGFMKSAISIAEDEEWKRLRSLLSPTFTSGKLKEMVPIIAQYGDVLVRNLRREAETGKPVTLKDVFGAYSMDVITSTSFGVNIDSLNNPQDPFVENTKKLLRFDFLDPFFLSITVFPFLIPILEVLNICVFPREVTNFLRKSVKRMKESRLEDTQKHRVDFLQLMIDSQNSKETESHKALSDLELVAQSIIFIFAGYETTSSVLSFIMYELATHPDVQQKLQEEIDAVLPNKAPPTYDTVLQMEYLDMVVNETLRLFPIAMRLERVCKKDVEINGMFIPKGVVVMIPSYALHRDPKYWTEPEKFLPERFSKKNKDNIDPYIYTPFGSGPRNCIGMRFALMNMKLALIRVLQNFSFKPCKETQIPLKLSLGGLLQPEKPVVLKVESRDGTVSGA
# Procedure: Then, the specific CYP3A4 substrate was added, and aliquots were collected at various time points. Samples were then diluted with ultra-pure water and analyzed by LC-MS/MS. Area ratio and remaining Activity (%) were calculated as above and IC50 values was calculated using Excel XLfit 5.3.1.3.
# RM1-BM-Luc cells = assay: Experimental bone metastasis, intracardiac RM1-BM-Luc; assay type: in vivo, C57BL/6 mice
# Procedure: For experimental bone metastasis experiments, 3 × 10^4 RM1-BM-Luc cells were injected by the intracardiac route to develop bone-metastases in 6- to 8-week-old male C57BL/6 mice as described previously. Incidence of metastasis was monitored using Bioluminescence imaging, as described previously.
# Fig. 4. […] RM1-BM-Luc cells were injected through the intracardiac (I.C.) route into C57BL/6 mice to establish experimental bone metastases. […] A) BLI imaging was performed on day 15 and the number of bone metastasis positive mice were graphically represented as metastatic events. B) Calculated ROI values are graphically represented (n = 6 ± SEM; * p < 0.05). C) Ex vivo BLI image of representative bones from both vehicle and IVMT-Rx-4 treated animals. D) Representative ex vivo images and (E) number of animals positive for metastases in the lungs, liver, brain and spleen for each experimental group ae presented.
# [5] = tumor-bearing animals, 30 mg/kg I.P., vs DMSO
smiles,measurement,setting,value
Cc1cc(NC(=O)CCc2nnc(-c3ccccc3)o2)c(C)cc1N [IVMT-Rx-4],PXR assay,PXR,No induction
same,IC50,[1],> 10 µM
same,"Drug-substrate based CYP Inhibition, others",[2],no inhibitory effects
same,CXCL5 protein level,CXCL5,significantly decreased
same,"Thermodynamic solubility in PBS, pH 7.4",[3],~160 mg/ML
same,solubility thermodynamic,"[3]; pH 7.4, aqueous buffer, thermodynamic from solid",160 mg/mL
same,moisture adsorption,[4]; 80% RH,0.98%
same,moisture adsorption,[4]; 90% RH,1.06%
same,hygroscopicity,[4]; DVS,slightly hygroscopic
same,IC50,CYP2E1,~8 µM
same,"Time-dependent inhibition (TDI), CYP3A4",CYP3A4,no time-dependent inhibition; also recorded: No TDI
same,animals with bone metastases,"RM1-BM-Luc cells; 30 mg/kg I.P. 3X a week for two weeks, fourteen days post-intracardiac injection, BLI",0 out of 6
same,Ex Vivo Imaging; Positive for tumor cells (n=6) Brain,"RM1-BM-Luc cells; 30 mg/kg I.P., 6 doses",0
same,Ex Vivo Imaging; Positive for tumor cells (n=6) Liver,"RM1-BM-Luc cells; 30 mg/kg I.P., 6 doses",2
same,Ex Vivo Imaging; Positive for tumor cells (n=6) Lungs,"RM1-BM-Luc cells; 30 mg/kg I.P., 6 doses",6
same,Ex Vivo Imaging; Positive for tumor cells (n=6) Spleen,"RM1-BM-Luc cells; 30 mg/kg I.P., 6 doses",0
same,"metastasis to the liver, brain and spleen, as well as to the bones","RM1-BM-Luc cells; 30 mg/kg I.P., ex-vivo imaging",partially prevented metastasis
same,CXCL5 in the serum of mice,RM1-BM-Luc cells; [5],reduced expression
same,PDGF-AA in the serum of mice,RM1-BM-Luc cells; [5],reduced expression
